Measured values from patent EP3586876A1, “GLUCOSE-SENSITIVE PEPTIDE HORMONES” (Gubra ApS, priority 2018, dated 2020).

Assay: Hydrolysis of linkers with or without glucose present (half-life by LC-MS or UPLC)
Format: physicochemical
Conditions: pH 7.4, 37°C, 0.42 mM linker
Protocol: 1.3-1.8 mg of linkers was dissolved in 100 µL DMSO or 100 µL MeCN. 10 µL was taken out from the DMSO stock solution, diluted with 90µL DMSO and dissolved in 900 µL 1xPBS buffer containing 10 000 equiv glucose, pH 7.4 or 900 µL 1xPBS buffer pH 7.4, to give a final concentration of 0.42 mM of the linker. 10 µL was taken out from the MeCN stock solution, diluted with 40 µL MeCN and dissolved in 950 µL 1xPBS buffer containing 10 000 equiv glucose, pH 7.4 or 950 µL 1xPBS buffer pH 7.4 to give a final concentration of 0.42 mM of the linker. The samples were incubated at 37°C and continuously analysed by LC-MS or UPLC.

[1] = 5% MeCN in PBS buffer, 10.000 equiv Glc
[2] = 10% DMSO in PBS buffer, 10.000 equiv Glc

SMILES	Half-life of the linker [1]	Half-life of the linker [2]	Half-life of the linker (10% DMSO in PBS buffer, no Glc)	Half-life of the linker (5% MeCN in PBS buffer, no Glc)
O=C(OCc1ccccc1)[C@@H]1CSC(c2ccccc2)N1 (stereo partly drawn) [Linker 7, Benzyl (4R)-2-phenyl-1,3-thiazolidine-4-carboxylic acid]	>48 h	>48 h	–	–
COc1ccc(C2N[C@H](C(=O)O)CS2)cc1O (some centres unmarked) [Linker 4]	–	4 h	10 h	–
O=C(O)[C@@H]1CSC(c2ccccc2)N1 (some centres unmarked) [Linker 1]	–	12 h	>48 h	–
COc1ccccc1C1N[C@H](C(=O)OCc2ccccc2)CS1 (stereo partly drawn) [Linker 10, Benzyl (4R)-2-(2-methoxyphenyl)-1,3-thiazolidine-4-carboxylic acid]	45 h	23 h	–	–
COc1cccc(C2N[C@H](C(=O)OCc3ccccc3)CS2)c1 (stereo partly drawn) [Linker 9, Benzyl (4R)-2-(3-methoxyphenyl)-1,3-thiazolidine-4-carboxylic acid]	>72 h	>72 h	–	–
COC(=O)[C@@H]1OC(c2ccc(OC)cc2)O[C@H]1C(=O)OC [Linker 17]	2.2 h	1.1 h	1.8 h	2.2 h
CC(=O)Nc1ccc(C2N[C@H](C(=O)OCc3ccccc3)CS2)cc1 (stereo partly drawn) [Linker 11, Benzyl (4R)-2-(4-acetamidophenyl)-1,3-thiazolidine-4-carboxylic acid]	>72 h	>72 h	–	–
CC(C)(C)OC(=O)N1C(c2ccccc2)OC[C@H]1C(=O)OCc1ccccc1 (some centres unmarked) [Linker 15]	>72 h	>72 h	>72 h	>72 h
O=C(O)[C@@H]1CSC(c2ccccc2O)N1 (some centres unmarked) [Linker 3]	–	0.5 h	2 h	–
O=C(O)[C@@H]1CSC(c2ccc([N+](=O)[O-])cc2)N1 (some centres unmarked) [Linker 5]	–	>24 h	>72 h	–
COc1ccc(C2N[C@H](C(=O)OCc3ccccc3)CS2)cc1 (stereo partly drawn) [Linker 8, Benzyl (4R)-2-(4-methoxyphenyl)-1,3-thiazolidine-4-carboxylic acid]	46 h	42 h	–	–
COC(=O)[C@@H]1OC(c2ccccc2OC)O[C@H]1C(=O)OC [Linker 19]	2.5 h	1.5 h	1.7 h	2.5 h
O=C(O)[C@@H]1CSC(Cc2ccccc2)N1 (some centres unmarked) [Linker 6]	–	24 h	>72 h	–
COc1ccc(C2N[C@H](C(=O)O)CS2)cc1 (some centres unmarked) [Linker 2]	–	2 h	4 h	–
COc1ccc(C2OC[C@@H](C(=O)OCc3ccccc3)N2C(=O)OC(C)(C)C)cc1 (some centres unmarked) [Linker 13]	>72 h	>72 h	>72 h	>72 h
